# Assay results from US20220304957A1, “ANTI-CANCER COMPOSITIONS AND METHODS OF USE” (Board of Supervisors of Louisiana State University and …, priority 2019, published 2022).
# Like-named read-outs stand apart in the source and are kept apart here.
# Tests used:
# [1] = system: LN229 human glioblastoma cell line; test: Cell viability (MTT assay), LN229; assay type: cell-based
# [2] = in vivo; cited from earlier work
# [3] = system: PPAR responsive elements (PPRE); test: PPAR luciferase assay (PPRE reporter) in HepG2 cells; assay type: cell-based; conditions: 25 μM, 24 hrs
# Protocol: (§1) Aliquots of 50 μM PP1 and FF in DMSO were added to 500 μl to heparinized human blood to a final concentration of 50 μM. Following incubation at 37° C. for the indicated time points, the samples were frozen at −80° C., and later prepared for HPLC-based detection of the compounds. Please note that FF is converted to FA in the presence of human blood. […] Data represent average values with standard deviation (n=3). panel B: Water solubility. FF and PP1, were added to water to a final concentration of 50 mM and sonicated in an ultrasonic bath (Branson 1510 Digital Heated Ultrasonic bath) for one hour at room temperature. The samples were then centrifuged for 10 minutes at 16000×g, and the supernatant filtered through 0.45 μm syringe filter. Water solubilized PP1 and FF were subsequently processed for HPLC analysis (see Methods). Data represent average values with standard deviation (n=3). panel C: Effects of PP compounds on PPAR responsive elements (PPRE). The PPAR transcriptional activity was determined in HepG2 cells by the JsTkpGL3 reporter plasmid, which contains a firefly luciferase gene driven by the PPRE, which consists of three copies of the J site from the apo-AII gene promoter. To normalize for efficiency of transfection the cells were additionally transfected with the pSV40-GLuc (New England Biolabs, Ipswich, Mass.) control plasmid. […] The luciferase activity was detected with Dual-Luciferase reporter assay system (Promega, Madison, Wis.), and the resulting luminescence measured with Synergy 2 microplate reader (BioTek, Winooski, Vt.). Data represent average values with standard deviation (n=6).
# PPAR Luciferase Assay—The PPAR transcriptional activity was determined by utilizing the JsTkpGL3 reporter plasmid, which contains a firefly luciferase gene driven by the PPAR responsive element (PPRE), which consists of three copies of the J site from the apo-AII gene promoter. Together with JsTkpGL3 plasmid HepG2 cells were transfected with pSV40-GLuc (New England Biolabs, Ipswich, Mass.) control plasmid expressing Gaussia luciferase under the control of the constitutive SV40 early promoter to normalize for efficiency of transfection. […] The luciferase activity was detected with Dual-Luciferase reporter assay system (Promega, Madison, Wis.), and the resulting luminescence measured with Synergy 2 microplate reader (BioTek, Winooski, Vt.).
# [4] = system: LN-229 human glioblastoma cells; conditions: for cell death: 25 and 50 μM, 72- and 96-hour time points; for % cell death: 50 μM (single dose)
# [5] = Stability in human blood (HPLC); assay type: in vitro ADME; conditions: 50 μM added, 48-hour incubation
# Protocol: as §1, with “Water solubilized PP1 and FF were subsequently processed for HPLC analysis (see Methods). Data represent average values with standard deviation (n=3). panel C: Effects of PP compounds on PPAR responsive elements (PPRE).” left out, “promoter.” for “promoter. To normalize for efficiency of transfection the cells were additionally transfected with the pSV40-GLuc (New England Biolabs, Ipswich, Mass.) control plasmid.”, “Data represent average values with standard deviation (n=6).” left out
# In this experiment, 50 μM of PP1 and 50 μM of FF were incubated with human blood at […], at indicated time points. […] In contrast, nearly 25 μM of PP1 was still detected at the 48-hour time point (FIG. 4A; left panel).
structure (smiles),measurement,setting,value
CN1CCN(C(=O)C(C)(C)Oc2ccc(C(=O)c3ccc(Cl)cc3)cc2)CC1.Cl [H35],CV = Cell viability (% of control),"[1]; 1 μM, MTT",93.64±2.08 % of control
same,CV = Cell viability (% of control),"[1]; 5 μM, MTT",79.34±1.70 % of control
same,CV = Cell viability (% of control),"[1]; 10 μM, MTT",56.26±0.59 % of control
"CC(C)(Oc1ccc(C(=O)c2ccc(Cl)cc2)cc1)C(=O)O [FA, fenofibric acid]",crossing of the blood brain tumor barrier (BBTB),[2],do not cross
CC(C)OC(=O)C(C)(C)Oc1ccc(C(=O)c2ccccc2)cc1 [HR6],anti-glioblastoma activity / relative potency,"[1]; 25 μM, 72 hrs, MTT",virtually inactive
CC(C)(C)OC(=O)NCCCCNC(=O)C(C)(C)Oc1ccc(C(=O)c2ccc(Cl)cc2)cc1 [H28],CV = Cell viability (% of control),"[1]; 1 μM, MTT",92.75±3.59 % of control
same,CV = Cell viability (% of control),"[1]; 5 μM, MTT",65.90±2.82 % of control
same,CV = Cell viability (% of control),"[1]; 10 μM, MTT",38.31±3.50 % of control
CC(C)(Oc1ccc(C(=O)c2ccc(Cl)cc2)cc1)C(=O)NCCO [HR39],anti-glioblastoma activity / relative potency,"[1]; 25 μM, 72 hrs, MTT",significantly less potent than PP1
CC(Oc1ccc(C(=O)c2ccc(Cl)cc2)cc1)C(=O)N1CCCCC1 (centres unmarked) [HR22],cell death,"[1]; 25 μM, 72 hrs",about 60%
"CC(C)(Oc1ccc(C(=O)c2ccc(Cl)cc2)cc1)C(=O)N1CCC(N2CCOCC2)CC1 [H37, 2-[4-(4-chlorobenzoyl)phenoxy]-2-methyl-1-[4-(morpholin-4-yl)piperidin-1-yl]propan-1-one]",CV = Cell viability (% of control),"[1]; 1 μM, MTT",109.20±5.73 % of control
same,CV = Cell viability (% of control),"[1]; 5 μM, MTT",75.02±1.42 % of control
same,CV = Cell viability (% of control),"[1]; 10 μM, MTT",47.02±1.23 % of control
CC(Oc1ccc(C(=O)c2ccc(Cl)cc2)cc1)C(=O)N1CCC(O)CC1 (centres unmarked) [HR21],cell death,"[1]; 25 μM, 72 hrs",about 60%
CC(C)(Oc1ccc(C(=O)c2ccc(F)cc2)cc1)C(=O)N1CCCCC1 [HR11],anti-glioblastoma activity / relative potency,"[1]; 25 μM, 72 hrs, MTT",slightly higher biological activity
CC(C)OC(=O)C(C)(C)Oc1ccc(C(=O)c2ccc(F)cc2)cc1 [HR8],anti-glioblastoma activity / relative potency,"[1]; 25 μM, 72 hrs, MTT",virtually the same activity (CV) as FF
"CC(C)(Oc1ccc(C(=O)c2ccc(Cl)cc2)cc1)C(=O)N1CCC(N2CCOCC2)CC1 [PP4, 2-[4-(4-chlorobenzoyl)phenoxy]-2-methyl-1-[4-(morpholin-4-yl)piperidin-1-yl]propan-1-one]",effect on PPAR responsive elements (PPRE),[3],attenuate
same,cell death,[4],extensive cell death
CC(C)(Oc1ccc(C(=O)c2ccc(Cl)cc2)cc1)C(=O)NC(CO)(CO)CO [HR45],anti-glioblastoma activity / relative potency,"[1]; 25 μM, 72 hrs, MTT",slightly decreases the potency
CC(C)(Oc1ccc(C(=O)c2ccc(Cl)cc2)cc1)C(=O)NC(CO)CO [HR43],anti-glioblastoma activity / relative potency,"[1]; 25 μM, 72 hrs, MTT",almost identical
"CN1CCN(C(=O)C(C)(C)Oc2ccc(C(=O)c3ccc(Cl)cc3)cc2)CC1.Cl [HR35, 4-{2-[4-(4-chlorobenzoyl)phenoxy]-2-methylpropanoyl}6-8,13-20,24-26,28,34,38-1-methylpiperazin-1-ium chloride]",anti-glioblastoma activity / relative potency,"[1]; 25 μM, 72 hrs, MTT",more potent than its free base HR34
"CN1CCN(C(=O)C(C)(C)Oc2ccc(C(=O)c3ccc(Cl)cc3)cc2)CC1 [PP2, 2-[4-(4-chlorobenzoyl)phenoxy]-2-methyl-1-(4-methylpiperazin-1-yl)propan-1-one]",effect on PPAR responsive elements (PPRE),[3],attenuate
same,cell death,[4],extensive cell death
CN(CCO)C(=O)C(C)(C)Oc1ccc(C(=O)c2ccc(F)cc2)cc1 [HR9],anti-glioblastoma activity / relative potency,"[1]; 25 μM, 72 hrs, MTT",lower potency than PP1
"CC(C)(Oc1ccc(C(=O)c2ccc(Cl)cc2)cc1)C(=O)N1CC[N+](C)(C)CC1 [HR36, 4-{2-[4-(4-chlorobenzoyl)phenoxy]-2-methylpropanoyl}-1,1-dimethylpiperazin-1-ium iodide]",viability at 25 µM,"[1]; Homo sapiens, LN-229, 25 μM, 72 hrs, MTT, read-out: CV = Cell viability (% of control)",98%
"CC(C)(Oc1ccc(C(=O)c2ccc(Cl)cc2)cc1)C(=O)N1CCC(N2CCOCC2)CC1 [HR37, 2-[4-(4-chlorobenzoyl)phenoxy]-2-methyl-1-[4-(morpholin-4-yl)piperidin-1-yl]propan-1-one]",anti-glioblastoma activity / relative potency,"[1]; 25 μM, 72 hrs, MTT",more potent than its hydrochloric salt (HR38)
CN(CC(O)CO)C(=O)C(C)(C)Oc1ccc(C(=O)c2ccc(Cl)cc2)cc1 (centres unmarked) [HR44],anti-glioblastoma activity / relative potency,"[1]; 25 μM, 72 hrs, MTT",more potent than the secondary amide HR39
"CC(C)(Oc1ccc(C(=O)c2ccc(Cl)cc2)cc1)C(=O)Nc1ccccc1O [HR49, 2-(4-(4-chlorobenzoyl)phenoxy)-N-(2-hydroxyphenyl)-2-methylpropanamide]",anti-glioblastoma activity / relative potency,"[1]; 25 μM, 72 hrs, MTT",more potent than HR48
same,IC50,"[1]; Homo sapiens, LN-229, LN229, read-out: IC50 concentration",< 10 µM
CC(C)(Oc1ccc(C(=O)c2ccc(Cl)cc2)cc1)C(=O)NCC(O)CO (centres unmarked) [HR42],anti-glioblastoma activity / relative potency,"[1]; 25 μM, 72 hrs, MTT",almost identical
CC(C)(Oc1ccc(C(=O)c2ccc(Cl)cc2)cc1)C(=O)N1CCC(O)CC1 [HR41],anti-glioblastoma activity / relative potency,"[1]; 25 μM, 72 hrs, MTT",less potent than PP1
CC(C)(Oc1ccc(C(=O)c2ccc(Cl)cc2)cc1)C(=O)NCCCCN [HR31],anti-glioblastoma activity / relative potency,"[1]; 25 μM, 72 hrs, MTT",CV value similar to that of 25 μM FF
CC(C)(Oc1ccc(C(=O)c2ccc(Cl)cc2)cc1)C(=O)N(CCO)CCO [HR46],anti-glioblastoma activity / relative potency,"[1]; 25 μM, 72 hrs, MTT",almost as potent as PP1
"CC(C)OC(=O)C(C)(C)Oc1ccc(C(=O)c2ccc(Cl)cc2)cc1 [FF, fenofibrate, reference compound]",% cell death,[4]; 48 hours,24+/−4%
same,% cell death,[4]; 72 hours,90+/−1%
same,% cell death,[4]; 96 hrs,99+/−1.2%
same,conversion to FA in human blood,[5],almost all FF was converted to FA
CC(C)(Oc1ccc(C(=O)c2ccc(Cl)cc2)cc1)C(=O)N(CCO)CCO [H46],CV = Cell viability (% of control),"[1]; 1 μM, MTT",103.00±2.98 % of control
same,CV = Cell viability (% of control),"[1]; 5 μM, MTT",86.15±8.50 % of control
same,CV = Cell viability (% of control),"[1]; 10 μM, MTT",51.97±10.27 % of control
CC(C)OC(=O)C(C)(C)Oc1cccc(C(=O)c2ccccc2)c1 [HR7],anti-glioblastoma activity / relative potency,"[1]; 25 μM, 72 hrs, MTT",virtually inactive
"CC(C)(Oc1ccc(C(=O)c2ccc(Cl)cc2)cc1)C(=O)N1CCC([NH+]2CCOCC2)CC1.[Cl-] [H38, 4-(1-{2-[4-(4-chlorobenzoyl)phenoxy]-2-methylpropanoyl}piperidin-4-yl)morpholin-4-iumchloride]",CV = Cell viability (% of control),"[1]; 1 μM, MTT",97.97±11.41 % of control
same,CV = Cell viability (% of control),"[1]; 5 μM, MTT",74.89±1.79 % of control
same,CV = Cell viability (% of control),"[1]; 10 μM, MTT",52.00±1.86 % of control
